In the experiment the target is T1, human GPR119 (Homo sapiens, UniProt Q8TDV5).
T1 construct: expression vector for human GPR119 cDNA (Acc. No. NP_848566); expressed in transfected cells
T1 sequence (Q8TDV5 1-335): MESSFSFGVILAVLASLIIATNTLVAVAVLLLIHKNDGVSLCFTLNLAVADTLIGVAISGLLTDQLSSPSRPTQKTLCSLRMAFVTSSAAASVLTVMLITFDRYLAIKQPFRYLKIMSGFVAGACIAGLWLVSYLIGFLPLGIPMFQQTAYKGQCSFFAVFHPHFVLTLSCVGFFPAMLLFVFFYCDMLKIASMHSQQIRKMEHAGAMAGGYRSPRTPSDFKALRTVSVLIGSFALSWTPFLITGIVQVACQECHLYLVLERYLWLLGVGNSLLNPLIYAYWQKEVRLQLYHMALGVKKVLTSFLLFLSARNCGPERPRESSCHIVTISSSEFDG
As to the kind of experiment: AlphaScreen cAMP assay in Min-6/hGPR119 cells (activation of GPR119, intracellular cAMP). The class given is cell-based. The conditions noted are these: MIN6 cells stably transfected with human GPR119; cAMP by AlphaScreen after 45 minutes incubation at room temperature. As to the method: The compounds of formula I according to the invention modulate the activity of the G-protein-coupled receptor GPR119. The effect of the compounds on the activation of GPR119 and on the stimulation of intracellular cAMP concentration is determined using the AlphaScreen cAMP Assay Kit (Cat.No.#6760625R) made by PerkinElmer.
MIN6 cells [Miyazaki J et al. Endocrinology. 1990 July; 127(1):126-32] are stably transfected with an expression vector for human GPR119 cDNA (Acc. No. NP_848566). Min-6/hGPR119 cells are cultured in DMEM, 10% FBS, 50 μM β-mercaptoethanol, 0.3 mg/mL Geniticin, 2 mM GlutaMAX at 37° C. 5% CO2. For the assay, the cells are seeded in Optiplates (white, 384-well, 160W— barcoded, TC, sterile with lid, Cat.No.#6007688 (Perkin Elmer); 10000 cells/well; 50 μl). The plates covered with lids are then incubated for 24 hours at 37° C./5% CO2. After the medium is aspirated from the wells completely, 10 μl of the test compound are added, the compounds are diluted using stimulating buffer (140 mM NaCl, 3.6 mM KCl, 0.5 mM NaH2PO4, 0.5 mM MgSO4, 1.5 mM CaCl2, 10 mM Hepes, 5 mM NaHCO3; pH 7.4. 0.5 mM IBMX and 0.1% BSA, the final DMSO concentration is 1%). After 45 minutes incubation at room temperature (approx. 20° C.), the cAMP concentrations are determined using the AlphaScreen cAMP Assay Kit (Cat.No.#6760625R from PerkinElmer).
For orientation: In Alpha technology, singlet oxygen from a donor bead excites a nearby acceptor bead.
The term EC50 denotes the midpoint of the concentration-response curve. Read a low EC50 as higher potency in that assay. On to `CC(C)(C)OC(=O)N1CCC(C2Cc3cc(-c4ccc(CS(C)(=O)=O)cc4F)ncc3O2)CC1` (single isomer, unassigned) [Example 75], for which a half-maximal effect (EC50) was put at 14 nM.

Compound `CC(C)(C)OC(=O)N1CCC(C2Cc3cc(-c4ccc(CS(C)(=O)=O)cc4F)ncc3O2)CC1` (single isomer, unassigned) [Example 76] gave a half-maximal effective concentration (EC50) of 55 nM. Against the preceding compound, the EC50 is about 3.9-fold higher.

`CC(C)OC(=O)N1CCC(C2Cc3cc(-c4ccc(S(C)(=O)=O)cc4)ccc3O2)CC1` (stereo not drawn) [Example 1, 4-[5-(4-Methanesulfonyl-phenyl)-2,3-dihydro-benzofuran-2-yl]-piperidine-1-carboxylic acid isopropyl ester] came in with a half-maximal effective concentration (EC50) of 32 nM.

`CC(C)OC(=O)N1CCC(C2Cc3cc(-c4ccc(S(C)(=O)=O)nc4)ccc3O2)CC1` (stereo not drawn) [Example 2, 4-[5-(6-Methanesulfonyl-pyridin-3-yl)-2,3-dihydro-benzofuran-2-yl]-piperidine-1-carboxylic acid isopropyl ester] displayed an EC50 of 71 nM.

Compound `CC(C)OC(=O)N1CCC(C2Cc3cc(-c4ccc(S(C)(=O)=O)cn4)ccc3O2)CC1` (stereo not drawn) [Example 3, 4-[5-(5-Methanesulfonyl-pyridin-2-yl)-2,3-dihydro-benzofuran-2-yl]-piperidine-1-carboxylic acid isopropyl ester] came in with an EC50 of 39 nM.

As for `CC(C)OC(=O)N1CCC(C2Cc3cc(-c4ccc(C#N)cc4)ccc3O2)CC1` (stereo not drawn) [Example 4, 4-[5-(4-Cyano-phenyl)-2,3-dihydro-benzofuran-2-yl]-piperidine-1-carboxylic acid isopropyl ester], a half-maximal effect (EC50) was put at 198 nM.

On to `CS(=O)(=O)c1ccc(-c2ccc3c(c2)CC(C2CCN(C(=O)OC4CCC4)CC2)O3)cc1` (stereo not drawn) [Example 5, 4-[5-(4-Methanesulfonyl-phenyl)-2,3-dihydro-benzofuran-2-yl]-piperidine-1-carboxylic acid cyclobutyl ester], for which the response was half-maximal at 18 nM (EC50).

Regarding `Cc1cc(C#N)cnc1-c1ccc2c(c1)CC(C1CCN(C(=O)OC(C)C)CC1)O2` (stereo not drawn) [Example 8, 4-[5-(5-Cyano-3-methyl-pyridin-2-yl)-2,3-dihydro-benzofuran-2-yl]-piperidine-1-carboxylic acid isopropyl ester], the EC50 turned out to be 228 nM.

`Cc1cc(-c2ccc3c(c2)CC(C2CCN(C(=O)OC(C)C)CC2)O3)cnc1C#N` (stereo not drawn) [Example 9, 4-[5-(6-Cyano-5-methyl-pyridin-3-yl)-2,3-dihydro-benzofuran-2-yl]-piperidine-1-carboxylic acid isopropyl ester] gave an EC50 of 432 nM. Compared with the last compound, the EC50 is about 1.9-fold higher.

In the case of `Cc1cc(S(C)(=O)=O)ccc1-c1ccc2c(c1)CC(C1CCN(C(=O)OC(C)C)CC1)O2` (stereo not drawn) [Example 10, 4-[5-(4-Methanesulfonyl-2-methyl-phenyl)-2,3-dihydro-benzofuran-2-yl]-piperidine-1-carboxylic acid isopropyl ester], the EC50 was 121 nM.

`Cc1cc([S+](C)[O-])ccc1-c1ccc2c(c1)CC(C1CCN(C(=O)OC(C)C)CC1)O2` (stereo not drawn) [Example 11, 4-[5-(4-Methanesulfinyl-2-methyl-phenyl)-2,3-dihydro-benzofuran-2-yl]-piperidine-1-carboxylic acid isopropyl ester] had an EC50 of 299 nM. Against the preceding compound, the EC50 is about 2.5-fold higher.

`CC(C)(C)OC(=O)N1CCC(C2Cc3nc(-c4ccc(S(C)(=O)=O)cc4)cnc3O2)CC1` (stereo not drawn) [Example 12, 4-[2-(4-Methanesulfonyl-phenyl)-6,7-dihydro-furo[2,3-b]byrazin-6-yl]-piperidine-1-carboxylic acid tert-butyl ester]: the EC50 was found to be 253 nM.

The compound `CC(C)(C)OC(=O)N1CCC(C2Cc3nc(-c4ccc(S(C)(=O)=O)cc4)ccc3O2)CC1` (stereo not drawn) [Example 13, 4-[5-(4-Methanesulfonyl-phenyl)-2,3-dihydro-furo[3,2-b]pyridin-2-yl]-piperidine-1-carboxylic acid tert-butyl ester] showed a 50% effective concentration (EC50) of 214 nM.

`CC(C)(C)OC(=O)N1CCC(C2Cc3cc(-c4ccc(S(C)(=O)=O)cn4)ccc3O2)CC1` (stereo not drawn) [Example 14, 4-[5-(5-Methanesulfonyl-pyridin-2-yl)-2,3-dihydro-benzofuran-2-yl]-piperidine-1-carboxylic acid tert-butyl ester]: the EC50 came out at 13 nM.

On to `CC(C)(C)OC(=O)N1CCC(C2Cc3cc(-c4ccc(S(C)(=O)=O)cc4)ncc3O2)CC1` (stereo not drawn) [Example 15, 4-[5-(4-Methanesulfonyl-phenyl)-2,3-dihydro-furo[2,3-c]pyridin-2-yl]-piperidine-1-carboxylic acid tert-butyl ester], for which the EC50 amounted to 9 nM. The EC50 values of the last two compounds are within 1.5-fold of each other.

As to `CC(C)OC(=O)N1CCC(C2Cc3cc(-c4cncnc4)ccc3O2)CC1` (stereo not drawn) [Example 16, 4-(5-Pyrimidin-5-yl-2,3-dihydro-benzofuran-2-yl)-piperidine-1-carboxylic acid isopropyl ester], a half-maximal response (EC50) required 186 nM. Compared with the last compound, the EC50 is about 21-fold higher.

Compound `CC1(OC(=O)N2CCC(C3Cc4cc(-c5ccc(S(C)(=O)=O)cc5)ccc4O3)CC2)CC1` (stereo not drawn) [Example 17, 4-[5-(4-Methanesulfonyl-phenyl)-2,3-dihydro-benzofuran-2-yl]-piperidine-1-carboxylic acid 1-methyl-cyclopropyl ester] returned an EC50 of 46 nM.

`Cc1nc(S(C)(=O)=O)ccc1-c1ccc2c(c1)CC(C1CCN(C(=O)OC(C)C)CC1)O2` (stereo not drawn) [Example 18, 4-[5-(6-Methanesulfonyl-2-methyl-pyridin-3-yl)-2,3-dihydro-benzofuran-2-yl]-piperidine-1-carboxylic acid isopropyl ester] displayed a concentration for a half-maximal effect (EC50) of 147 nM.

As for `Cc1cc(S(C)(=O)=O)ncc1-c1ccc2c(c1)CC(C1CCN(C(=O)OC(C)C)CC1)O2` (stereo not drawn) [Example 19, 4-[5-(6-Methanesulfonyl-4-methyl-pyridin-3-yl)-2,3-dihydro-benzofuran-2-yl]-piperidine-1-carboxylic acid isopropyl ester], the EC50 was 1000 nM.

For the compound `CC1(OC(=O)N2CCC(C3Cc4cc(-c5ccc(S(C)(=O)=O)cc5)ncc4O3)CC2)CC1` (stereo not drawn) [Example 20, 4-[5-(4-Methanesulfonyl-phenyl)-2,3-dihydro-furo[2,3-c]pyridin-2-yl]-piperidine-1-carboxylic acid 1-methyl-cyclopropyl ester], a half-maximal response (EC50) required 17 nM.

Regarding `CC(C)(C)OC(=O)N1CCC(C2Cc3cc(-c4cnco4)ccc3O2)CC1` (stereo not drawn) [Example 21, 4-(5-Oxazol-5-yl-2,3-dihydro-benzofuran-2-yl)-piperidine-1-carboxylic acid tert-butyl ester], the response was half-maximal at 77 nM (EC50).

Take `CC(C)(C)OC(=O)N1CCC(C2Cc3nc(-c4ccc(S(C)(=O)=O)cc4)ncc3O2)CC1` (stereo not drawn) [Example 22, 4-[2-(4-Methanesulfonyl-phenyl)-6,7-dihydro-furo[3,2-d]pyrimidin-6-yl]-piperidine-1-carboxylic acid tert-butyl ester]: a half-maximal effect (EC50) was put at 45 nM. Against the preceding compound, the EC50 is about 1.7-fold lower.

`CC(C)(C)OC(=O)N1CCC(C2Cc3cc(-c4ccc(S(C)(=O)=O)cc4F)ncc3O2)CC1` (stereo not drawn) [Example 23, 4-[5-(2-Fluoro-4-methanesulfonyl-phenyl)-2,3-dihydro-furo[2,3-c]pyridin-2-yl]-piperidine-1-carboxylic acid tert-butyl ester]: a half-maximal effect (EC50) was put at 18 nM.

Take `CS(=O)(=O)c1ccc(-c2cc3c(cn2)OC(C2CCN(C(=O)OC4CCC4)CC2)C3)cc1` (stereo not drawn) [Example 24, 4-[5-(4-Methanesulfonyl-phenyl)-2,3-dihydro-furo[2,3-c]pyridin-2-yl]-piperidine-1-carboxylic acid cyclobutyl ester]: the EC50 turned out to be 17 nM.

Compound `CC(C)(C)OC(=O)N1CCC(C2Cc3cc(-c4ccc(C(N)=O)cc4F)ncc3O2)CC1` (stereo not drawn) [Example 26, 4-[5-(4-Carbamoyl-2-fluoro-phenyl)-2,3-dihydro-furo[2,3-c]pyridin-2-yl]-piperidine-1-carboxylic acid tert-butyl ester] gave a concentration giving a half-maximal response (EC50) of 88 nM.

Regarding `CNC(=O)c1ccc(-c2cc3c(cn2)OC(C2CCN(C(=O)OC(C)(C)C)CC2)C3)c(F)c1` (stereo not drawn) [Example 27, 4-[5-(2-Fluoro-4-methylcarbamoyl-phenyl)-2,3-dihydro-furo[2,3-c]pyridin-2-yl]-piperidine-1-carboxylic acid tert-butyl ester], a half-maximal effect (EC50) was put at 24 nM. Compared with the last compound, the EC50 is about 3.7-fold lower.

`CC(C)(C)OC(=O)N1CCC(C2Cc3cc(-c4ccc(C#N)c(F)c4)ncc3O2)CC1` (stereo not drawn) [Example 28, 4-[5-(4-Cyano-3-fluoro-phenyl)-2,3-dihydro-furo[2,3-c]hyridin-2-yl]-piperidine-1-carboxylic acid tert-butyl ester] registered an EC50 of 23 nM.

Values taken from US8669271B2 (Boehringer Ingelheim International GmbH, priority 2010, dated 2014).
